Assay results from PubChem BioAssay AID2060623 (Molecular Pharmacology Branch, DTP, NCI, 2025).

Test system: 227483-062-R1-J1-PDC complex spheroids with HUVEC/MSC, viability
Experiment: Anticancer human tumor 227483-062-R1-J1-PDC patient-derived pancreatic carcinoma cell line growth inhibition [CLK]
Settings: for IC50: curve of first compound; for viability, T/C: stronger effect = lower value
Method in brief: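 Multi-cell-type spheroids combined patient-derived tumor cells with HUVEC endothelial cells and human mesenchymal stem cells. Paired agents were dosed in half-log steps down from about clinical Cmax, or from 10 microM where Cmax was unknown.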

[1] = second compound 0.0316 µM, first compound 0.0316 µM
[2] = second compound 0.0316 µM, first compound 0.1 µM
[3] = second compound 0.0316 µM, first compound 0.316 µM
[4] = second compound 0.0316 µM, first compound 1 µM
[5] = second compound 0.0316 µM, first compound 3.16 µM
[6] = second compound 0.0316 µM, first compound 10 µM
[7] = second compound 0.1 µM, first compound 0.0316 µM
[8] = second compound 0.1 µM, first compound 0.1 µM
[9] = second compound 0.1 µM, first compound 0.316 µM
[10] = second compound 0.1 µM, first compound 1 µM
[11] = second compound 0.1 µM, first compound 3.16 µM
[12] = second compound 0.1 µM, first compound 10 µM
[13] = second compound 0.316 µM, first compound 0.0316 µM
[14] = second compound 0.316 µM, first compound 0.1 µM
[15] = second compound 0.316 µM, first compound 0.316 µM
[16] = second compound 0.316 µM, first compound 1 µM
[17] = second compound 0.316 µM, first compound 3.16 µM
[18] = second compound 0.316 µM, first compound 10 µM
[19] = second compound 1 µM, first compound 0.0316 µM
[20] = second compound 1 µM, first compound 0.1 µM
[21] = second compound 1 µM, first compound 0.316 µM
[22] = second compound 1 µM, first compound 1 µM
[23] = second compound 1 µM, first compound 3.16 µM
[24] = second compound 1 µM, first compound 10 µM
[25] = second compound 3.16 µM, first compound 0.0316 µM
[26] = second compound 3.16 µM, first compound 0.1 µM
[27] = second compound 3.16 µM, first compound 0.316 µM
[28] = second compound 3.16 µM, first compound 1 µM
[29] = second compound 3.16 µM, first compound 3.16 µM
[30] = second compound 3.16 µM, first compound 10 µM
[31] = second compound 10 µM, first compound 0.0316 µM
[32] = second compound 10 µM, first compound 0.1 µM
[33] = second compound 10 µM, first compound 0.316 µM
[34] = second compound 10 µM, first compound 1 µM
[35] = second compound 10 µM, first compound 3.16 µM
[36] = second compound 10 µM, first compound 10 µM
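Note: spheroids exposed to compounds for seven days before readout.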
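Throughout, for viability, T/C: percent of DMSO vehicle control luminescence as 100% viability.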

## C#Cc1c(F)ccc2cc(O)cc(-c3ncc4c(N5CC6CCC(C5)N6)nc(OCC56CCCN5CC(F)C6)nc4c3F)c12 (stereo not given) + CNC(=O)c1ccc(Nc2nc(OC3CCCC3)c3c(-c4ccc5nc(C)oc5c4)c[nH]c3n2)c(OC)c1
Second compound 0.0316 µM
  IC50: > 10000 nM
Second compound 0.1 µM
  IC50: > 10000 nM
Second compound 0.316 µM
  IC50: > 10000 nM
Second compound 1 µM
  IC50: 5620 nM
Second compound 3.16 µM
  IC50: 301 nM
Second compound 10 µM
  IC50: < 31.6 nM
[1]
  viability, T/C: 101%
[2]
  viability, T/C: 110%
[3]
  viability, T/C: 112%
[4]
  viability, T/C: 131%
[5]
  viability, T/C: 122%
[6]
  viability, T/C: 87.7%
[7]
  viability, T/C: 96.2%
[8]
  viability, T/C: 120%
[9]
  viability, T/C: 116%
[10]
  viability, T/C: 111%
[11]
  viability, T/C: 127%
[12]
  viability, T/C: 68.5%
[13]
  viability, T/C: 106%
[14]
  viability, T/C: 97.7%
[15]
  viability, T/C: 94.8%
[16]
  viability, T/C: 100%
[17]
  viability, T/C: 87.8%
[18]
  viability, T/C: 58.9%
[19]
  viability, T/C: 78.3%
[20]
  viability, T/C: 71.9%
[21]
  viability, T/C: 74.7%
[22]
  viability, T/C: 61.9%
[23]
  viability, T/C: 61.1%
[24]
  viability, T/C: 41.6%
[25]
  viability, T/C: 49.2%
[26]
  viability, T/C: 57.4%
[27]
  viability, T/C: 51%
[28]
  viability, T/C: 41.9%
[29]
  viability, T/C: 43.8%
[30]
  viability, T/C: 33.5%
[31]
  viability, T/C: 42.1%
[32]
  viability, T/C: 38%
[33]
  viability, T/C: 43.7%
[34]
  viability, T/C: 34.6%
[35]
  viability, T/C: 34.8%
[36]
  viability, T/C: 28.3%

## C=C(F)C(=O)N1CCN(c2nc(OCC3CCCN3C)nc3c2CCN(c2cccc4cccc(Cl)c24)C3)CC1CC#N (stereo not given) + CNC(=O)c1ccc(Nc2nc(OC3CCCC3)c3c(-c4ccc5nc(C)oc5c4)c[nH]c3n2)c(OC)c1
Second compound 0.0316 µM
  IC50: 5410 nM
Second compound 0.1 µM
  IC50: 5790 nM
Second compound 0.316 µM
  IC50: 5820 nM
Second compound 1 µM
  IC50: 3780 nM
Second compound 3.16 µM
  IC50: 169 nM
Second compound 10 µM
  IC50: < 31.6 nM
[1]
  viability, T/C: 116%
[2]
  viability, T/C: 98%
[3]
  viability, T/C: 117%
[4]
  viability, T/C: 121%
[5]
  viability, T/C: 83.9%
[6]
  viability, T/C: 11.4%
[7]
  viability, T/C: 113%
[8]
  viability, T/C: 118%
[9]
  viability, T/C: 93.7%
[10]
  viability, T/C: 103%
[11]
  viability, T/C: 96.5%
[12]
  viability, T/C: 8.35%
[13]
  viability, T/C: 95.9%
[14]
  viability, T/C: 84.2%
[15]
  viability, T/C: 101%
[16]
  viability, T/C: 102%
[17]
  viability, T/C: 130%
[18]
  viability, T/C: 3.32%
[19]
  viability, T/C: 79.6%
[20]
  viability, T/C: 57.4%
[21]
  viability, T/C: 67.7%
[22]
  viability, T/C: 69%
[23]
  viability, T/C: 58.8%
[24]
  viability, T/C: 0.65%
[25]
  viability, T/C: 52.3%
[26]
  viability, T/C: 47.2%
[27]
  viability, T/C: 51.9%
[28]
  viability, T/C: 41.6%
[29]
  viability, T/C: 22%
[30]
  viability, T/C: 0.26%
[31]
  viability, T/C: 42.4%
[32]
  viability, T/C: 43.3%
[33]
  viability, T/C: 40.3%
[34]
  viability, T/C: 29%
[35]
  viability, T/C: 16.1%
[36]
  viability, T/C: 0.39%

## CC(CO)NC(=O)c1cc(-c2ccc(Cl)cc2)nn(-c2cnn(C)c2)c1=O (stereo not given) + CNC(=O)c1ccc(Nc2nc(OC3CCCC3)c3c(-c4ccc5nc(C)oc5c4)c[nH]c3n2)c(OC)c1
Second compound 0.0316 µM
  IC50: > 10000 nM
Second compound 0.1 µM
  IC50: > 10000 nM
Second compound 0.316 µM
  IC50: > 10000 nM
Second compound 1 µM
  IC50: > 10000 nM
Second compound 3.16 µM
  IC50: < 31.6 nM
Second compound 10 µM
  IC50: < 31.6 nM
[1]
  viability, T/C: 100%
[2]
  viability, T/C: 80.3%
[3]
  viability, T/C: 103%
[4]
  viability, T/C: 99.4%
[5]
  viability, T/C: 86.6%
[6]
  viability, T/C: 84.7%
[7]
  viability, T/C: 109%
[8]
  viability, T/C: 102%
[9]
  viability, T/C: 96.1%
[10]
  viability, T/C: 91.4%
[11]
  viability, T/C: 78.3%
[12]
  viability, T/C: 82.6%
[13]
  viability, T/C: 80.2%
[14]
  viability, T/C: 90.7%
[15]
  viability, T/C: 85.5%
[16]
  viability, T/C: 77.5%
[17]
  viability, T/C: 83.7%
[18]
  viability, T/C: 70.8%
[19]
  viability, T/C: 62.6%
[20]
  viability, T/C: 68.2%
[21]
  viability, T/C: 61.4%
[22]
  viability, T/C: 54.1%
[23]
  viability, T/C: 64.9%
[24]
  viability, T/C: 56.9%
[25]
  viability, T/C: 45.5%
[26]
  viability, T/C: 50.3%
[27]
  viability, T/C: 46%
[28]
  viability, T/C: 45.5%
[29]
  viability, T/C: 49%
[30]
  viability, T/C: 38.3%
[31]
  viability, T/C: 36.5%
[32]
  viability, T/C: 41.8%
[33]
  viability, T/C: 51.3%
[34]
  viability, T/C: 37.3%
[35]
  viability, T/C: 30.6%
[36]
  viability, T/C: 36%

## CC(Nc1ccc2c(c1)OCCn1cc(N3C(=O)OCC3C(F)F)nc1-2)C(N)=O (stereo not given) + CNC(=O)c1ccc(Nc2nc(OC3CCCC3)c3c(-c4ccc5nc(C)oc5c4)c[nH]c3n2)c(OC)c1
Second compound 0.0316 µM
  IC50: > 10000 nM
Second compound 0.1 µM
  IC50: > 10000 nM
Second compound 0.316 µM
  IC50: > 10000 nM
Second compound 1 µM
  IC50: 73.3 nM
Second compound 3.16 µM
  IC50: < 31.6 nM
Second compound 10 µM
  IC50: < 31.6 nM
[1]
  viability, T/C: 105%
[2]
  viability, T/C: 82.3%
[3]
  viability, T/C: 83.9%
[4]
  viability, T/C: 85.5%
[5]
  viability, T/C: 65.4%
[6]
  viability, T/C: 67.3%
[7]
  viability, T/C: 88%
[8]
  viability, T/C: 78.4%
[9]
  viability, T/C: 66.1%
[10]
  viability, T/C: 70.3%
[11]
  viability, T/C: 55.7%
[12]
  viability, T/C: 58.2%
[13]
  viability, T/C: 92.5%
[14]
  viability, T/C: 64.3%
[15]
  viability, T/C: 65.5%
[16]
  viability, T/C: 52.4%
[17]
  viability, T/C: 56.9%
[18]
  viability, T/C: 49.7%
[19]
  viability, T/C: 60.6%
[20]
  viability, T/C: 45.1%
[21]
  viability, T/C: 46.9%
[22]
  viability, T/C: 47.7%
[23]
  viability, T/C: 39.7%
[24]
  viability, T/C: 41.9%
[25]
  viability, T/C: 45%
[26]
  viability, T/C: 49.8%
[27]
  viability, T/C: 32%
[28]
  viability, T/C: 33.4%
[29]
  viability, T/C: 35.4%
[30]
  viability, T/C: 25.9%
[31]
  viability, T/C: 38.6%
[32]
  viability, T/C: 46.2%
[33]
  viability, T/C: 37.7%
[34]
  viability, T/C: 27.8%
[35]
  viability, T/C: 32.9%
[36]
  viability, T/C: 24.9%

## COc1c(OCCCN2CCOCC2)ccc2c3n(c(=NC(=O)c4cnc(N)nc4)nc12)CCN3 + CNC(=O)c1ccc(Nc2nc(OC3CCCC3)c3c(-c4ccc5nc(C)oc5c4)c[nH]c3n2)c(OC)c1
Second compound 0.0316 µM
  IC50: > 1000 nM
Second compound 0.1 µM
  IC50: 80.7 nM
Second compound 0.316 µM
  IC50: 61.2 nM
Second compound 1 µM
  IC50: 10.6 nM
Second compound 3.16 µM
  IC50: 4.26 nM
Second compound 10 µM
  IC50: < 3.16 nM
Second compound 0.0316 µM, first compound 0.00316 µM
  viability, T/C: 94.9%
Second compound 0.0316 µM, first compound 0.01 µM
  viability, T/C: 93.6%
[1]
  viability, T/C: 79.5%
[2]
  viability, T/C: 69%
[3]
  viability, T/C: 70%
[4]
  viability, T/C: 51.2%
Second compound 0.1 µM, first compound 0.00316 µM
  viability, T/C: 96%
Second compound 0.1 µM, first compound 0.01 µM
  viability, T/C: 89.5%
[7]
  viability, T/C: 56.2%
[8]
  viability, T/C: 58.7%
[9]
  viability, T/C: 44.1%
[10]
  viability, T/C: 41%
Second compound 0.316 µM, first compound 0.00316 µM
  viability, T/C: 87.4%
Second compound 0.316 µM, first compound 0.01 µM
  viability, T/C: 55.1%
[13]
  viability, T/C: 59.8%
[14]
  viability, T/C: 52.2%
[15]
  viability, T/C: 37.9%
[16]
  viability, T/C: 32.2%
Second compound 1 µM, first compound 0.00316 µM
  viability, T/C: 55.9%
Second compound 1 µM, first compound 0.01 µM
  viability, T/C: 56.7%
[19]
  viability, T/C: 39.9%
[20]
  viability, T/C: 32.2%
[21]
  viability, T/C: 26.3%
[22]
  viability, T/C: 20.6%
Second compound 3.16 µM, first compound 0.00316 µM
  viability, T/C: 50.3%
Second compound 3.16 µM, first compound 0.01 µM
  viability, T/C: 48.3%
[25]
  viability, T/C: 34.9%
[26]
  viability, T/C: 22.3%
[27]
  viability, T/C: 18.4%
[28]
  viability, T/C: 14.8%
Second compound 10 µM, first compound 0.00316 µM
  viability, T/C: 43.1%
Second compound 10 µM, first compound 0.01 µM
  viability, T/C: 36.9%
[31]
  viability, T/C: 30.3%
[32]
  viability, T/C: 21.2%
[33]
  viability, T/C: 18%
[34]
  viability, T/C: 16.3%
